# Experimental data as given in patent US12428427B2, “Methods and compositions for targeting PD-L1” (Aligos Therapeutics, Inc., priority 2021, dated 2025).
# Assays:
# PD-1/PD-L1 interaction = molecular target: T1, PD-1/PD-L1 interaction (Homo sapiens, UniProt Q9NZQ7); assay: PD-1/PD-L1 NFAT Reporter Assay; assay type: cell-based; conditions: co-culture of PD-L1 expressing CHO cells and PD-1 overexpressing Jurkat cells, 6 hrs, NFAT luciferase
# T1 construct: expressed in transfected cells; Jurkat cells (PD-1 plus NFAT-luciferase)
# Experimental: Blocking the PD-1/PD-L1 interaction will release the inhibitory signal and results in TCR signaling and NFAT-mediated luciferase activity.
# CHO cells expressing surface-bound anti-CD3 antibodies and PD-L1 were first seeded overnight and treated with the compounds. Jurkat cells overexpressing PD-1 and a luciferase construct under NFAT promoter were then immediately seeded on the monolayer of CHO cells. The co-culture was then incubated for 6 hrs at 37° C. Luciferase activity was assessed by adding the ONE-Glo reagent and measuring luminescence with a plate reader. EC50 values were determined from the fit of the dose-response curves.
# PDL1/PD1 = PDL1/PD1 (Homo sapiens, UniProt Q9NZQ7); assay: PDL1/PD1 Binding Assay; conditions: PDL1-6×His 0.3 nM, PD1-Fc-Avi-Biotin 2.5 nM, Acceptor/Donor beads; read-out: PD-1/PD-L1 PPI IC50
# Experimental: Compounds to be tested were serially diluted in DMSO, and further diluted in assay buffer (25 mM Hepes pH 7.4, 150 mM NaCl, 0.005% Tween 20, BSA 0.01%). Diluted compounds were added to the wells with final concentration of DMSO at 1%. PDL1-6×His protein was added to the wells, mixed well with compound. The plates were incubated for 30 min at room temperature. PD1-Fc-Avi-Biotin protein was added to the wells. Final concentration of PDL1 and PD1 protein is 0.3 nM and 2.5 nM, respectively. After a binding time of 30 min at room temperature, Anti-6×His Acceptor beads (final concentration 20 ug/ml) were added to the wells, and the incubation continued for 1 h. Streptavidin Donor beads (final concentration 20 ug/mL) were added at reduced light. The plates were sealed with foil and incubated in the dark for additional 1 h or overnight before reading on an Envision reader. The IC50 values were determined by fitting the curves using a four-parameter equation in Graphpad Prism 8.
# T1 sequence (Q9NZQ7 19-290): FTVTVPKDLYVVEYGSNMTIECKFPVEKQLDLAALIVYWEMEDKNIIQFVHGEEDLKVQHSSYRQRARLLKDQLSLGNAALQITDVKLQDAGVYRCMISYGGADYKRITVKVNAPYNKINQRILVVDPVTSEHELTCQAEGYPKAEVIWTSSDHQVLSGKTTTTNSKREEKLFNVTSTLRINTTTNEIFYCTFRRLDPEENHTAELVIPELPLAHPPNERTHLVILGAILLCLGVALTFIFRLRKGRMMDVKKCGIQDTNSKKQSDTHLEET
# Chain of PDL1/PD1 (Q9NZQ7 19-238 limits assumed): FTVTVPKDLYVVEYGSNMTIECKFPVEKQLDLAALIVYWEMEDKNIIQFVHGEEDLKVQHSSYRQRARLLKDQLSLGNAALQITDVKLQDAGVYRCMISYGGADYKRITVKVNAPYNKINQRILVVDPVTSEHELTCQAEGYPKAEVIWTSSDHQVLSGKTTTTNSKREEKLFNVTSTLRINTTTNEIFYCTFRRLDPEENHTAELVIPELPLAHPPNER
Compound,EC50 (PD-1/PD-L1 interaction) [nM],IC50 (PDL1/PD1) [nM]
COc1nc(-c2cccc(-c3cccc(NC(=O)c4ccnn(C)c4=O)c3Cl)c2Cl)cnc1CN1CC2(CCC(=O)N2)C1 [Compound A-1],10 to 100,≤ 10
COc1nc(-c2cccc(-c3cccc(NC(=O)c4ccn[nH]c4=O)c3Cl)c2Cl)cnc1CN1CC2(CCC(=O)N2)C1 [Compound A-2],10 to 100,≤ 10
COc1nc(-c2cccc(-c3cccc(NC(=O)c4cc(Cl)n[nH]c4=O)c3Cl)c2Cl)cnc1CN1CC2(CCC(=O)N2)C1 [Compound A-3],100 to 1000,≤ 10
COc1nc(-c2cccc(-c3cccc(NC(=O)c4cc(C)n[nH]c4=O)c3Cl)c2Cl)cnc1CN1CC2(CCC(=O)N2)C1 [Compound A-4],100 to 1000,≤ 10
COc1nc(-c2cccc(-c3cccc(NC(=O)c4ccnn(C)c4=O)c3Cl)c2Cl)cnc1CNC[C@@H]1CCC(=O)N1 [Compound B-1],10 to 100,≤ 10
COc1nc(-c2cccc(-c3cccc(NC(=O)c4ccnn(C)c4=O)c3Cl)c2Cl)ccc1CNC[C@@H]1CCC(=O)N1 [Compound B-2],10 to 100,≤ 10
COc1nc(-c2cccc(-c3cccc(NC(=O)c4ccnn(C)c4=O)c3Cl)c2Cl)cc(C)c1CNC[C@@H]1CCC(=O)N1 [Compound B-3],≤ 10,≤ 10
COc1nc(-c2cccc(-c3cccc(NC(=O)c4ccnn(C)c4=O)c3C)c2F)cc(C)c1CNC[C@@H]1CCC(=O)N1 [Compound B-4],10 to 100,≤ 10
COc1nc(-c2cccc(-c3cccc(NC(=O)c4ccnn(C)c4=O)c3C)c2Cl)cnc1CNC[C@@H]1CCC(=O)N1 [Compound B-5],100 to 1000,≤ 10
COc1nc(-c2cccc(-c3cccc(NC(=O)c4ccnn(C)c4=O)c3C)c2Cl)ccc1CNC[C@@H]1CCC(=O)N1 [Compound B-6],≤ 10,≤ 10
COc1nc(-c2cccc(-c3cccc(NC(=O)c4ccnn(C)c4=O)c3C)c2Cl)cc(C)c1CNC[C@@H]1CCC(=O)N1 [Compound B-7],≤ 10,≤ 10
COc1nc(-c2cccc(-c3cccc(NC(=O)c4ccnn(C)c4=O)c3Cl)c2Cl)ccc1CN[C@@H]1CCOC[C@@H]1O [Compound C-1],> 10000,≤ 10
COc1nc(-c2cccc(-c3cccc(NC(=O)c4ccnn(C)c4=O)c3Cl)c2Cl)ccc1CNCCO [Compound C-2],10 to 100,≤ 10
COc1nc(-c2cccc(-c3cccc(NC(=O)c4ccnn(C)c4=O)c3Cl)c2Cl)ccc1CNC[C@H](C)O [Compound C-3],10 to 100,≤ 10
COc1nc(-c2cccc(-c3cccc(NC(=O)c4ccnn(C)c4=O)c3Cl)c2Cl)ccc1CNC[C@@H](C)O [Compound C-4],≤ 10,≤ 10
COc1nc(-c2cccc(-c3cccc(NC(=O)c4ccnn(C)c4=O)c3Cl)c2Cl)ccc1CNCC(C)(C)O [Compound C-5],10 to 100,≤ 10
COc1nc(-c2cccc(-c3cccc(NC(=O)c4ccnn(C)c4=O)c3Cl)c2Cl)ccc1CNC1CC1 [Compound C-6],10 to 100,≤ 10
COc1nc(-c2cccc(-c3cccc(NC(=O)c4ccnn(C)c4=O)c3Cl)c2Cl)ccc1CN1CC(O)C1 [Compound C-7],≤ 10,≤ 10
COc1nc(-c2cccc(-c3cccc(NC(=O)c4ccnn(C)c4=O)c3Cl)c2Cl)ccc1CN1CC(OC)C1 [Compound C-8],10 to 100,≤ 10
COc1nc(-c2cccc(-c3cccc(NC(=O)c4ccnn(C)c4=O)c3Cl)c2Cl)ccc1CN1CC(C(=O)O)C1 [Compound C-9],≤ 10,≤ 10
COc1nc(-c2cccc(-c3cccc(NC(=O)c4ccnn(C)c4=O)c3Cl)c2Cl)ccc1CN1CCCC[C@H]1C(=O)O [Compound C-10],100 to 1000,≤ 10
COc1nc(-c2cccc(-c3cccc(NC(=O)c4ccnn(C)c4=O)c3Cl)c2Cl)ccc1CN1CCCC[C@@H]1C(=O)O [Compound C-11],100 to 1000,≤ 10
COc1nc(-c2cccc(-c3cccc(NC(=O)c4ccnn(C)c4=O)c3Cl)c2Cl)ccc1CN[C@](C)(CO)C(=O)O [Compound C-12],10 to 100,≤ 10

# More lines, now with the values ahead:
EC50 (PD-1/PD-L1 interaction) [nM],IC50 (PDL1/PD1) [nM],Compound
≤ 10,≤ 10,COc1nc(-c2cccc(-c3cccc(NC(=O)c4ccnn(C)c4=O)c3C)c2Cl)ccc1CNC1CCN(C(C)=O)C[C@@H]1O (stereo in doubt) [Compound C-69]
10 to 100,≤ 10,CCOC(=O)C1CN(Cc2ccc(-c3cccc(-c4cccc(NC(=O)c5ccnn(C)c5=O)c4Cl)c3Cl)nc2OC)C1 [Compound C-13]
10 to 100,10 to 100,CCOC(=O)[C@@H]1CCN(Cc2ccc(-c3cccc(-c4cccc(NC(=O)c5ccnn(C)c5=O)c4Cl)c3Cl)nc2OC)C1 [Compound C-14]
10 to 100,10 to 100,CCOC(=O)[C@H]1CCN(Cc2ccc(-c3cccc(-c4cccc(NC(=O)c5ccnn(C)c5=O)c4Cl)c3Cl)nc2OC)C1 [Compound C-15]
10 to 100,≤ 10,COc1nc(-c2cccc(-c3cccc(NC(=O)c4ccnn(C)c4=O)c3Cl)c2Cl)ccc1CN1CC[C@@H](C(=O)O)C1 [Compound C-16]
10 to 100,≤ 10,COc1nc(-c2cccc(-c3cccc(NC(=O)c4ccnn(C)c4=O)c3Cl)c2Cl)ccc1CN1CC[C@H](C(=O)O)C1 [Compound C-17]
10 to 100,≤ 10,COC(=O)C1(F)CN(Cc2ccc(-c3cccc(-c4cccc(NC(=O)c5ccnn(C)c5=O)c4Cl)c3Cl)nc2OC)C1 [Compound C-18]
10 to 100,≤ 10,COc1nc(-c2cccc(-c3cccc(NC(=O)c4ccnn(C)c4=O)c3Cl)c2Cl)ccc1CN1CC(F)(C(=O)O)C1 [Compound C-19]
10 to 100,≤ 10,COc1nc(-c2cccc(-c3cccc(NC(=O)c4ccnn(C)c4=O)c3Cl)c2Cl)ccc1CN1CC(C)(C(=O)O)C1 [Compound C-20]
100 to 1000,10 to 100,CCOC(=O)C1(C)CN(Cc2ccc(-c3cccc(-c4cccc(NC(=O)c5ccnn(C)c5=O)c4Cl)c3Cl)nc2OC)C1 [Compound C-21]
100 to 1000,≤ 10,COC(=O)C12CCC(CC1)N(Cc1ccc(-c3cccc(-c4cccc(NC(=O)c5ccnn(C)c5=O)c4Cl)c3Cl)nc1OC)C2 [Compound C-22]
10 to 100,,COc1nc(-c2cccc(-c3cccc(NC(=O)c4ccnn(C)c4=O)c3Cl)c2Cl)ccc1CN[C@@H]1CN(C(C)=O)C[C@@H]1O [Compound C-45]
10 to 100,,COc1nc(-c2cccc(-c3cccc(NC(=O)c4ccnn(C)c4=O)c3Cl)c2Cl)ccc1CN1CC(C(=O)NS(C)(=O)=O)C1 [Compound C-46]
> 5000,,COc1nc(-c2cccc(-c3cccc(NC(=O)c4ccnn(C)c4=O)c3C)c2Cl)ccc1CN[C@@H]1CCOC[C@@H]1O [Compound C-52]
,≤ 10,CCOC(=O)C1(C)CN(Cc2ccc(-c3cccc(-c4cccc(NC(=O)c5ccnn(C)c5=O)c4C)c3Cl)nc2OC)C1 [Compound C-59]
100 to 1000,,COc1nc(-c2cccc(-c3cccc(NC(=O)c4ccnn(C)c4=O)c3C)c2Cl)ccc1CN1CC(F)(C(=O)O)C1 [Compound C-62]
≤ 10,,COc1nc(-c2cccc(-c3cccc(NC(=O)c4ccnn(C)c4=O)c3C)c2C)ccc1CN[C@@H]1CCOC[C@@H]1O [Compound C-71]
> 5000,,COc1nc(-c2cccc(-c3cccc(NC(=O)c4ccnn(C)c4=O)c3C)c2C)ccc1CN1C[C@@H](O)[C@@H]1C [Compound C-74]
10 to 100,,COc1nc(-c2cccc(-c3cccc(NC(=O)c4ccnn(C)c4=O)c3Cl)c2Cl)cnc1CN[C@@H]1CCOC[C@@H]1O [Compound C-83]
10 to 100,,COc1nc(-c2cccc(-c3cccc(NC(=O)c4ccnn(C)c4=O)c3Cl)c2Cl)cnc1CN1CC(O)C1 [Compound C-84]
≤ 10,,COc1nc(-c2cccc(-c3cccc(NC(=O)c4ccnn(C)c4=O)c3Cl)c2Cl)cnc1CN1CC[C@H](O)C1 [Compound C-85]
≤ 10,,COc1nc(-c2cccc(-c3cccc(NC(=O)c4ccnn(C)c4=O)c3C)c2Cl)cnc1CN1CC(O)C1 [Compound C-86]
10 to 100,,COc1nc(-c2cccc(-c3cccc(NC(=O)c4ccnn(C)c4=O)c3Cl)c2Cl)ccc1CNCCC(=O)O [Compound C-93]
10 to 100,,CCOC(=O)CCNCc1ccc(-c2cccc(-c3cccc(NC(=O)c4ccnn(C)c4=O)c3Cl)c2Cl)nc1OC [Compound C-94]
100 to 1000,,CCOC(=O)CCN(Cc1ccc(-c2cccc(-c3cccc(NC(=O)c4ccnn(C)c4=O)c3Cl)c2Cl)nc1OC)C(=O)OCc1oc(=O)oc1C [Compound F-1]
10 to 100,,CCOC(=O)[C@@H](O)CNCc1ccc(-c2cccc(-c3cccc(NC(=O)c4ccnn(C)c4=O)c3Cl)c2Cl)nc1OC [Compound G-1]
> 5000,,CCOC(=O)[C@@H]1CN(Cc2ccc(-c3cccc(-c4cccc(NC(=O)c5ccnn(C)c5=O)c4Cl)c3Cl)nc2OC)C(=O)O1 [Compound H-1]
